Results reported in patent US8236488B2, “Method of screening for therapeutic compounds for vascular disorders and hypertension based on URAT1 activity modulation” (Human Cell Systems, Inc., priority 2003, dated 2012).

Key:
Type in all cases: cell-based
[1] = test system: rat VSMCs; assay: 14C-urate uptake into rat VSMCs in the presence of inhibitors or other organic anions; conditions: 20 μM 14C-urate, 37° C., 5 minutes; for uric acid uptake into VSMCs in the presence of another organic anion: 100, 250 or 500 μM PAH or lactate; for uric acid uptake into VSMCs in the presence of organic anion transporter inhibitor: 0.1, 0.5 or 1 mM probenecid or 0.5, 1 or 10 μM benzbromarone
Procedure: Further, the present inventors examined a mechanism of urate uptake under physiologic conditions (polarized conditions). First, the present inventors examined whether ^14C-urate competed with cold urate for uptake. The ^14C-urate uptake level by rat VSMCs was measured at 37° C. for 5 minutes using an uptake solution containing 20 μM ^14C-urate and 0, 0.1, 1, 5, 10, or 50 mg/dL cold urate. Each of the measurement results is the average±standard deviation of three wells. […] In FIG. 2, a vertical axis represents the ratio (%) of ^14C-urate uptake level determined when the ^14C-urate uptake level in the absence of cold urate is defined as 100%. A horizontal axis represents the concentration of cold urate (mg/dL).
The ^14C-urate uptake level was measured at 37° C. for 5 minutes using an uptake solution containing 20 μM ^14C-urate and 0, 0.1, 0.5 or 1 mM probenecid or 0, 0.5, 1 or 10 μM benzbromarone. Each of the measurement results is the average±standard deviation of three wells. […] In FIGS. 3 and 4, a vertical axis represents the ratio (%) of ^14C-urate uptake level determined when the ^14C-urate uptake level in the absence of probenecid (FIG. 3) or benzbromarone (FIG. 4) is defined as 100%. A horizontal axis in FIG. 3 represents the concentration of probenecid (mM), and a horizontal axis in FIG. 4 represents the concentration of benzbromarone (μM). An asterisk (*) in the FIGS. 3 and 4 indicate that there is a significant difference (p<0.05)
Further, another test was carried out to examine whether ^14C-urate competed with an organic anion such as para-amino hippurate (PAH) or lactate for uptake. The ^14C-urate uptake level by rat VSMCs was measured at 37° C. for 5 minutes using an uptake solution containing 20 μM ^14C-urate and 0, 100, 250 or 500 μM PAH or 0, 100, 250 or 500 lactate. In addition, the ^14C-urate uptake level by rat VSMCs was also measured using an uptake solution containing 20 μM ^14C-urate and 250 μM uric acid (UA). Each of the measurement results is the average±standard deviation of three wells. […] In FIGS. 5 and 6, a vertical axis represents the ratio (%) of ^14C-urate uptake level determined when the ^14C-urate uptake level in the absence of PAH (FIG. 5) or lactate (FIG. 6) is defined as 100%. A horizontal axis in FIG. 5 represents the concentration of PAH (μM), and a horizontal axis in FIG. 6 represents the concentration of lactate (μM). An asterisk (*) in FIGS. 5 and 6 indicate that there is a significant difference (p<0.05).
(§1) In the following experiments, vascular smooth muscle cells (VSMCs) derived from rat aorta were used (see Zhang S, Yang Y, et al., Circulation., 2003; 107, 1539-44). These cells were cultured in Dulbecco' s Modified Eagle Medium (DMEM, GIBCO) containing 10% fetal bovine serum (FBS), 1% glutamine, and 1% penicillin/streptomycin solution (100 units/ml penicillin, 100 μg/mL streptomycin; GIBCO). The cultured VSMCs were transferred into wells of a 35-mm six-well culture plate (NUNC), and were then maintained at 37° C. in an atmosphere of 5% carbon dioxide and 95% air in a humidified tissue culture incubator. The culture medium was replaced every 2 days. The VSMCs used in the experiments were 5th to 12th generation cells.
The VSMCs (4×10^5 cells) were transferred into wells of a six-well culture plate together with 10% FBS-DMEM. After a lapse of one day, the VSMCs were placed in DMEM medium without serum and incubated over night to stop growth. In all the experiments, cells and all the solutions used were maintained at 37° C. […]

[2] = test system: rat VSMCs; assay: VSMC proliferation test (3H-thymidine uptake); conditions: 24 hour incubation; for effect of inhibitor alone on cell proliferation: absence of uric acid
Procedure: Next, the present inventors examined whether an inhibitor of organic anion transportation inhibited the response of VSMC proliferation. Proliferation of VSMCs after 24 hour incubation was determined by measuring the ^3H-thymidine uptake level. This test was carried out for cases where no uric acid (UA) was present, 3 mg/dL uric acid (UA) was present, 3 mg/dL uric acid and 0.1, 0.5 or 1 mM probenecid were present, and 3 mg/dL uric acid (UA) and 0.5, 1 or 10 μM benzbromarone were present. In addition, the test was also carried out for cases where probenecid was present alone and benzbromarone was present alone. Each of the measurement results is the average±standard deviation of three wells (CPM). FIGS. 7 and 8 show the result of the test carried out to examine the effect of probenecid (FIG. 7) or benzbromarone (FIG. 8) on inhibition of response of VSMC proliferation. In FIGS. 7 and 8, a vertical axis represents the ^3H-thymidine uptake (CPM) level, a horizontal axis represents the concentration of uric acid or the concentration of an inhibitor.
as §1
The VSMCs (4×10^5 cells) were transferred into wells of a six-well culture plate together with 10% FBS-DMEM, and were cultured for 24 hours. Then, the cells were starved for 48 hours in 0.5% FBS-DMEM, and the resting VSMCs were stimulated with 3 mg/dL uric acid containing 1 μCi ^3H-thymidine to detect DNA synthesis. Further, 2 μCi/mL ^3H-thymidine was added to each well 2 hours before harvesting the cells. The cells were washed with ice-cooled PBS three times, and were lysed in 1 mL of 1N NaOH. 0.5 mL of the cell lysate was added to 5 mL of scintillation fluid to measure the ^3H-thymidine uptake level by the cells. The ^3H-thymidine uptake level by the cells was expressed as CMP/well and counted in a liquid scintillation counter. Some experiments were carried out in the presence of different concentrations of probenecid or benzbromarone (organic anion transporter inhibitor).

[3] = test system: MCP-1; assay: ELISA of MCP-1 protein secreted into culture supernatant of rat VSMCs; conditions: 24 hours
Procedure: The present inventors have already reported that uric acid induces the production of MCP-1 (see Non-Patent Document 8). The production of MCP-1 in VSMC was examined. Rat VSMCs were cultured for 24 hours, and the amount of MCP-1 secreted into culture supernatant was measured by ELISA. A test was carried out for cases where 3 mg/dL uric acid (UA) was present, 3 mg/dL uric acid and 1 mM probenecid were present, and probenecid was present alone. In FIG. 10, a vertical axis represents the amount of MCP-1 (pg/1000 cells), and a horizontal axis represents cases where nothing was present (No UA), 3 mg/dL uric acid was present (UA), 3 mg/dL uric acid and 1 mM probenecid were present (UA+Prob), and probenecid was present alone (Prob), and two asterisks (**) indicate that there is a significant difference (p<0.05) when compared to a control. […] The VSMCs (5×10^4 cells/well) were placed in wells of a 24-well plate, and serum was deprived after reaching 70% confluence. Then, media with or without 3 mg/dL uric acid was added and the cells were cultured for 24 hours in the presence or absence of 1 mM probenecid. The amount of MCP-1 protein contained in supernatant was measured by ELISA (OptEIA MCP-1 set, BD Pharmingen), and corrected for cell number. Each experiment was repeated three times.

[4] = test system: rat VSMCs; assay: Urate uptake into VSMCs under polarized and depolarized conditions; conditions: 20 μM 14C-urate
Procedure: Urate uptake into vascular smooth muscle cells (VSMCs) was examined under polarized and depolarized conditions. The ^14C-urate uptake level by VSMCs was measured using an uptake solution containing 20 μM ^14C-urate under polarized conditions (HEPES-physiological saline solution) or depolarized conditions (100 mM KCl uptake solution) for 120 minutes. The ^14C-urate uptake level was measured every one minute. Each of the measurement results is the average±standard deviation of three wells. In FIG. 1, a vertical axis represents the ^14C-urate uptake (CPM) level, a horizontal axis represents time (min), the symbol “□” represents a case where urate uptake was examined under depolarized conditions, and the symbol “♦” represents a case where urate uptake was examined under polarized conditions. […] It can be known that urate is rapidly taken up by rat VSMCs, that under depolarized conditions, urate uptake reaches steady state within about 15 minutes, and that under polarized conditions, urate uptake reaches steady state within about 30 minutes.
Further, in still another experiment, urate uptake was examined under polarized or depolarized conditions to determine whether urate uptake was voltage sensitive. The conditions for the experiment were the same as described above except that a culture solution for polarized conditions and a culture solution for depolarized conditions were different. More specifically, after 12 hour starvation, the serum free medium was removed and replaced with 0.45 mL of HEPES-physiological saline solution (PSS) containing 140 mM NaCl, 4 mM KCl, 2 mMCaCl2, 1 mM MgCl2, 5 mM glucose, and 16 mM HEPES-tris (pH 7.4) for polarized conditions, or 100 mM-KCl uptake solution containing 44 mM NaCl, 100 mM KCl, 2 mM CaCl2, 1 mM MgCl2, 5 mM glucose, and 16 mM HEPES-tris (pH 7.4) for depolarized conditions.

In the case of `Nc1ccc(C(=O)NCC(=O)O)cc1` [PAH, para-amino hippurate], the “uric acid uptake into VSMCs in the presence of another organic anion” value [1] is reported as “inhibited”.

In the case of `CCc1oc2ccccc2c1C(=O)c1cc(Br)c(O)c(Br)c1` [benzbromarone], the “uric acid uptake into VSMCs in the presence of organic anion transporter inhibitor” value [1] is reported as “concentration-dependently reduced” and the “effect of inhibitor alone on cell proliferation” value [2] is reported as “The same was observed”.

For `CC(O)C(=O)O` (centres unmarked) [lactate], the “uric acid uptake into VSMCs in the presence of another organic anion” value [1] was “more weakly inhibited”.

In the case of `CCCN(CCC)S(=O)(=O)c1ccc(C(=O)O)cc1` [probenecid], the “uric acid uptake into VSMCs in the presence of organic anion transporter inhibitor” value [1] is reported as “concentration-dependently reduced”, the “uric acid-induced increase in the 3H-thymidine uptake level (VSMC proliferation)” value ([2]; 3 mg/dL uric acid plus inhibitor) is reported as “concentration-dependently inhibited” and the “effect of inhibitor alone on cell proliferation” value [2] is reported as “little effect on cell proliferation”. For the same molecule, the “increase in uric acid-induced production of MCP-1” value ([3]; 3 mg/dL uric acid and 1 mM probenecid) was “inhibited” and the “production of MCP-1 with inhibitor alone” value ([3]; probenecid alone, no uric acid) was “not inhibited”.

For `O=c1[nH]c(=O)c2[nH]c(=O)[nH]c2[nH]1` [uric acid], the “competition between 14C-urate and cold urate for uptake by rat VSMCs” value ([1]; 0.1, 1, 5, 10 or 50 mg/dL cold urate) was “more effectively competed”, the “3H-thymidine uptake level by rat VSMCs” value ([2]; 3 mg/dL uric acid) was “increased” and the “urate uptake level, depolarized versus polarized conditions” value ([4]; up to 120 minutes) was “larger under depolarized conditions than under polarized conditions”. For the same molecule, the “time until urate uptake reaches steady state” value ([4]; depolarized conditions (100 mM KCl uptake solution)) was ≤ 15 min and the “time until urate uptake reaches steady state” value ([4]; polarized conditions (HEPES-physiological saline solution)) was ≤ 30 min.
